Literature values in US8357679B2, “Hexafluoroisopropanol derivatives” (MSD Oss B.V., priority 2008, dated 2013).

Legend:
[1] = in vivo
[2] = system: vascular smooth muscle cell; details: in vitro
[3] = in vivo; remark: listed apart in the source
tumours = details: animal model of prostate cancer

In the case of O=S(=O)(c1ccccc1)N(CC(F)(F)F)c1ccc(C(O)(C(F)(F)F)C(F)(F)F)cc1 [Example T0901317, T0901317], the “deposition of β-amyloid” value [1] is given as “lower deposition of β-amyloid”, the memory [1] is given as “improve memory” and the “vascular smooth muscle cell proliferation” value [2] is given as “inhibit”. For the same compound, the “neointima formation following balloon injury” value [3] was “inhibit” and the progression of tumours (tumours) was “delayed progression of tumours”.
